Measured values published in publication PMC3397407 (Journal of Medicinal Chemistry, 2012).

Key:
[1] = In vivo disposition and metabolites of 3 in rats after gavage; set-up: species or system rat; settings: after gavage of 3
[2] = Chemical stability of synthetic metabolite 4; assay type: physicochemical; settings: air and moisture or DMSO solution
[3] = tested on: RXRE transcriptional activity (COS-1 cells transfected with pRXRE, phRXRα and pRL); assay: RXRE-luciferase reporter gene assay; settings: for absolute activity induced (firefly luciferase, not normalized): 24 h incubation conditions; for maximum enhancement of RXRE transcriptional activity: after 4–6 h of incubation
NFκB = NFκB luciferase assay; assay type: cell-based, Human
[4] = rat, gavage 40 mg/kg daily for 3 days; cited from earlier work
[5] = Metabolic stability with pooled human liver microsomes
[6] = 10 µM, glutathione 10 mM, NADPH, 60 min

NCCCn1c2c(c3ccc(N)cc3c1=O)C(O)c1ccccc1-2 (centres unmarked) [Compound 4, 3-Amino-6-(3-aminopropyl)-11-hydroxy-6,11-dihydro-5H-indeno[1,2-c]isoquinolin-5-one]
metabolite detected in rat liver [1]: detected in rat liver
metabolite detected in rat mammary tissue [1]: not in serum or mammary tissue
chemical stability [2]: rather unstable and slowly oxidized back to 3

CC(=O)Nc1ccc2c3c(n(CCCN)c(=O)c2c1)-c1ccccc1C3O (centres unmarked) [Compound 6, N-[6-(3-Aminopropyl)-11-hydroxy-5-oxo-6,11-dihydro-5H-indeno[1,2-c]isoquinolin-3-yl]acetamide]
metabolite observed in vivo using rats [1]: all except 6 and 10 were observed in vivo

C=C(c1ccc(C(=O)O)cc1)c1cc2c(cc1C)C(C)(C)CCC2(C)C [Compound 2, bexarotene, reference compound]
absolute activity induced (firefly luciferase, not normalized) [3]: 22.4 ± 3.1 fold
maximum enhancement of RXRE transcriptional activity [3]: 10 fold
RXRE IR ([3]; at 40 µM): 8.85±3.89

Nc1ccc2c3c(n(CCCO)c(=O)c2c1)-c1ccccc1C3=O [Compound 7, 6-(3-Hydroxypropyl)-3-amino-5H-indeno[1,2-c]isoquinoline-5,11(6H)dione]
metabolite detected in rat liver [1]: detected in rat liver
metabolite detected in rat mammary tissue [1]: not in serum or mammary tissue

CNCCCn1c2c(c3ccc(N)cc3c1=O)C(O)c1ccccc1-2 (centres unmarked) [Compound 34]
concentration range of NFκB inhibition, in words (NFκB): sub-µM concentrations

CNc1ccc2c3c(n(CCCN)c(=O)c2c1)-c1ccccc1C3O (centres unmarked) [Compound 29]
concentration range of NFκB inhibition, in words (NFκB): sub-µM concentrations

Nc1ccc2c3c(n(CCCO)c(=O)c2c1)-c1ccccc1C3O (centres unmarked) [Compound 8, 3-Amino-11-hydroxy-6-(3-hydroxypropyl)-6,11-dihydro-5H-indeno[1,2-c]isoquinolin-5-one]
activity as inhibitor of NFκB, in words (NFκB): inhibited activity as high concentrations
metabolite detected in rat liver [1]: detected in rat liver
metabolite detected in rat mammary tissue [1]: not in serum or mammary tissue

NCCCn1c2c(c3ccc(N)cc3c1=O)C(=O)c1ccccc1-2 [Compound 3, 3-amino-6-(3'-aminopropyl)-5H-indeno[1,2-c]isoquinoline-5,11-(6H)dione]
concentration in liver [4]: 4.3 µg/g
concentration in mammary gland [4]: 0.3 µg/g
concentration in serum [4]: 800 ng/mL
RXRE Highest IR (maximum induction ratio) [3]: 7.67±0.37
absolute activity induced (firefly luciferase, not normalized) [3]: 40.5 ± 5.4 fold
RXRE induction ([3]; 24 h incubation, 5 µM): ~ 160 fold
induction ratio normalized on Renilla luciferase activity ([3]; 24 h incubation, Figure 9): exceeded 100 fold
maximum enhancement of RXRE transcriptional activity [3]: 5 fold
elimination rate constant ([5]; 1 µM, 1 mg protein/mL, 60 min): 0.0053
CLint scaled at 1 µM ([5]; both, human, microsomes, pH 7.4): 5.33 mL/min/kg
formation of glutathione conjugates (electrophilic metabolites) [6]: no evidence of glutathione conjugates

CNc1ccc2c3c(n(CCCNC(=O)OC(C)(C)C)c(=O)c2c1)-c1ccccc1C3O (centres unmarked) [Compound 27]
concentration range of NFκB inhibition, in words (NFκB): sub-µM concentrations

CC(=O)Nc1ccc2c3c(n(CCCO)c(=O)c2c1)-c1ccccc1C3=O [Compound 9, N-[6-(3-Hydroxypropyl)-5,11-dioxo-6,11-dihydro-5H-indeno[1,2-c]isoquinolin-3-yl]acetamide]
metabolite detected in rat liver [1]: detected in rat liver
metabolite detected in rat mammary tissue [1]: not in serum or mammary tissue

CC(=O)Nc1ccc2c3c(n(CCCN)c(=O)c2c1)-c1ccccc1C3=O [Compound 5, N-[6-(3-Aminopropyl)-5,11-dioxo-6,11-dihydro-5H-indeno[1,2-c]isoquinolin-3-yl]acetamide]
metabolite detected in rat liver [1]: detected
metabolite detected in rat mammary tissue [1]: not in mammary tissue
metabolite detected in rat serum [1]: detected
activity as inducer of RXRE transcriptional activity, in words [3]: moderately active at high concentrations
